Laboratory results taken from ChEMBL document CHEMBL6178019, “Discovery of CYP1A1 Inhibitors for Host-Directed Therapy against Sepsis” (J Med Chem, 2025).

biological target: T1, CYP1A1 (Homo sapiens, UniProt P04798); assay: Inhibition of CYP1A1 in human Caco-2 cells assessed as relative activity by measuring fold change at 500 nM incubated for 12 hrs by EROD assay relative to control; format: cell-based; settings: read-out: FC
T1 sequence (P04798 whole entry): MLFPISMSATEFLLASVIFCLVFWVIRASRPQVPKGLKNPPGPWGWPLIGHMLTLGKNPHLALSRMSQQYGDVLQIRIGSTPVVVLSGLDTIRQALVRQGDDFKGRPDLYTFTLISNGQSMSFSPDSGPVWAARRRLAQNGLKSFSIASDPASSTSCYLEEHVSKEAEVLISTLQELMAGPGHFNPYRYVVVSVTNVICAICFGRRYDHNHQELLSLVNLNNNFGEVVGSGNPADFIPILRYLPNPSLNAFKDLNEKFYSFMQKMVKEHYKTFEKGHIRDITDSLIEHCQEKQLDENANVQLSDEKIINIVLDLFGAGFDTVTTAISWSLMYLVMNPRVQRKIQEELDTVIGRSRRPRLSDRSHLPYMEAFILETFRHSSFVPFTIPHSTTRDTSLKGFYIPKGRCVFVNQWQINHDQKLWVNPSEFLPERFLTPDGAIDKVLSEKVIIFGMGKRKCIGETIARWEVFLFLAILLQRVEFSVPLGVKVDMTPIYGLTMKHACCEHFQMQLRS

SMILES	fold induction at 12 h, 0.5 µM
Cn1c(=O)n(C)c2cc(C(=O)/C=C/c3ccc(F)cc3)ccc21	0.47
Cn1c(=O)n(C)c2cc(C(=O)/C=C/c3ccc(F)cc3Cl)ccc21	0.84
CN(C)c1ccc(/C=C/C(=O)c2ccc3c(c2)n(C)c(=O)n3C)cc1	0.52
Cn1c(=O)n(C)c2cc(C(=O)/C=C/c3ccc(B(O)O)cc3F)ccc21	0.45
Cn1c(=O)n(C)c2cc(C(=O)/C=C/c3cccc(OC(F)(F)F)c3)ccc21	0.58
Cn1cccc1/C=C/C(=O)c1ccc2c(c1)n(C)c(=O)n2C	0.45
Cn1c(=O)n(C)c2cc(C(=O)/C=C/c3ncccn3)ccc21	1.05
Cn1c(=O)n(C)c2cc(C(=O)/C=C/c3ccc(O[Si](C)(C)C(C)(C)C)cc3)ccc21	0.69
C#Cc1ccc(/C=C/C(=O)c2ccc(NC(C)=O)cc2)cc1	0.76
Cn1c(=O)n(C)c2cc(C(=O)/C=C/C#Cc3ccccc3)ccc21	0.85
Cn1c(=O)n(C)c2cc(C(=O)/C=C/c3ccc(F)cc3F)ccc21	0.68
Cn1c(=O)n(C)c2cc(C(=O)/C=C/c3cc(F)c(F)cc3F)ccc21	0.35
Cn1c(=O)n(C)c2cc(C(=O)/C=C/c3ccc(C#N)cc3)ccc21	0.83
Cn1c(=O)n(C)c2cc(C(=O)/C=C/c3cccnc3Br)ccc21	0.63
Cn1c(=O)n(C)c2cc(C(=O)/C=C/C#C[Si](C)(C)C)ccc21	0.66
Cn1c(=O)n(C)c2cc(C(=O)/C=C/c3cccc(F)c3)ccc21	0.32
Cn1c(=O)n(C)c2cc(C(=O)/C=C/c3cn(Cc4ccccc4)c4ccccc34)ccc21	0.52
Cn1c(=O)n(C)c2cc(C(=O)/C=C/c3cc(F)cc(F)c3)ccc21	0.89
Cn1c(=O)n(C)c2cc(C(=O)/C=C/c3cnc4ccccc4c3)ccc21	0.62

biological target: T2, Cytochrome P450 1A1 (Homo sapiens, UniProt P04798); assay: Inhibition of CYP1A1 in human Caco-2 cells assessed as relative activity by measuring fold change at 5.0 uM incubated for 12 hrs by EROD assay relative to control; format: cell-based; settings: caco-2, 12 h
T2 sequence (P04798 whole entry): T1 sequence (P04798 whole entry)

SMILES	fold change (FC)
Cn1c(=O)n(C)c2cc(C(=O)/C=C/c3ccc(F)cc3)ccc21	0.08
Cn1c(=O)n(C)c2cc(C(=O)/C=C/c3ccc(F)cc3Cl)ccc21	0.38
CN(C)c1ccc(/C=C/C(=O)c2ccc3c(c2)n(C)c(=O)n3C)cc1	0.24
Cn1c(=O)n(C)c2cc(C(=O)/C=C/c3ccc(B(O)O)cc3F)ccc21	0.14
Cn1c(=O)n(C)c2cc(C(=O)/C=C/c3cccc(OC(F)(F)F)c3)ccc21	0.17
Cn1cccc1/C=C/C(=O)c1ccc2c(c1)n(C)c(=O)n2C	0.09
Cn1c(=O)n(C)c2cc(C(=O)/C=C/c3ncccn3)ccc21	0.88
Cn1c(=O)n(C)c2cc(C(=O)/C=C/c3ccc(O[Si](C)(C)C(C)(C)C)cc3)ccc21	0.43
C#Cc1ccc(/C=C/C(=O)c2ccc(NC(C)=O)cc2)cc1	0.43
Cn1c(=O)n(C)c2cc(C(=O)/C=C/C#Cc3ccccc3)ccc21	0.39
Cn1c(=O)n(C)c2cc(C(=O)/C=C/c3ccc(F)cc3F)ccc21	0.42
Cn1c(=O)n(C)c2cc(C(=O)/C=C/c3cc(F)c(F)cc3F)ccc21	0.1
Cn1c(=O)n(C)c2cc(C(=O)/C=C/c3ccc(C#N)cc3)ccc21	0.51
Cn1c(=O)n(C)c2cc(C(=O)/C=C/c3cccnc3Br)ccc21	0.22
Cn1c(=O)n(C)c2cc(C(=O)/C=C/C#C[Si](C)(C)C)ccc21	0.11
Cn1c(=O)n(C)c2cc(C(=O)/C=C/c3cccc(F)c3)ccc21	0.07
Cn1c(=O)n(C)c2cc(C(=O)/C=C/c3cn(Cc4ccccc4)c4ccccc34)ccc21	0.33
Cn1c(=O)n(C)c2cc(C(=O)/C=C/c3cc(F)cc(F)c3)ccc21	0.74
Cn1c(=O)n(C)c2cc(C(=O)/C=C/c3cnc4ccccc4c3)ccc21	0.15

biological target: T3, CYP1A1 (Mus musculus, UniProt P00184); assay: Inhibition of CYP1A1 in mouse RAW264.7 cells assessed as relative activity by measuring fold change at 500 nM incubated for 12 hrs by EROD assay relative to control; format: cell-based; settings: read-out: FC
T3 sequence (P00184 whole entry): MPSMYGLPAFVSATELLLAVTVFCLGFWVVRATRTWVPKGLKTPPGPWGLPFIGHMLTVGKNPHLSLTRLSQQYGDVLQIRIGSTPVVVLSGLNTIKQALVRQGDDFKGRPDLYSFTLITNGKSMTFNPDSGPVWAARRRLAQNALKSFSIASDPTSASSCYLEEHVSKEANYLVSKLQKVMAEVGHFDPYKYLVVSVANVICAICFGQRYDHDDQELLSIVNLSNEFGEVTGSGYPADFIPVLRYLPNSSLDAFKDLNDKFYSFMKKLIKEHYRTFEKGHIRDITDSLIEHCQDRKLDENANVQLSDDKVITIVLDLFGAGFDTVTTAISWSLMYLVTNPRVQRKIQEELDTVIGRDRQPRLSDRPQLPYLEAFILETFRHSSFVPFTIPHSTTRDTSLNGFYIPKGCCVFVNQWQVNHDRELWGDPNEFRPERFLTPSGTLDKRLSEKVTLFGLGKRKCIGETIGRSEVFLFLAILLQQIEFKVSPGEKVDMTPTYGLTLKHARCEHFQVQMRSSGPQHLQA

SMILES	fold induction at 12 h, 0.5 µM
Cn1c(=O)n(C)c2cc(C(=O)/C=C/c3ccc(F)cc3)ccc21	0.29
Cn1c(=O)n(C)c2cc(C(=O)/C=C/c3ccc(F)cc3Cl)ccc21	0.67
CN(C)c1ccc(/C=C/C(=O)c2ccc3c(c2)n(C)c(=O)n3C)cc1	1.05
Cn1c(=O)n(C)c2cc(C(=O)/C=C/c3ccc(B(O)O)cc3F)ccc21	1.02
Cn1c(=O)n(C)c2cc(C(=O)/C=C/c3cccc(OC(F)(F)F)c3)ccc21	0.62
Cn1cccc1/C=C/C(=O)c1ccc2c(c1)n(C)c(=O)n2C	1.47
Cn1c(=O)n(C)c2cc(C(=O)/C=C/c3ncccn3)ccc21	0.73
Cn1c(=O)n(C)c2cc(C(=O)/C=C/c3ccc(O[Si](C)(C)C(C)(C)C)cc3)ccc21	1.11
C#Cc1ccc(/C=C/C(=O)c2ccc(NC(C)=O)cc2)cc1	1.12
Cn1c(=O)n(C)c2cc(C(=O)/C=C/C#Cc3ccccc3)ccc21	0.79
Cn1c(=O)n(C)c2cc(C(=O)/C=C/c3ccc(F)cc3F)ccc21	0.74
Cn1c(=O)n(C)c2cc(C(=O)/C=C/c3cc(F)c(F)cc3F)ccc21	1.11
Cn1c(=O)n(C)c2cc(C(=O)/C=C/c3ccc(C#N)cc3)ccc21	0.82
Cn1c(=O)n(C)c2cc(C(=O)/C=C/c3cccnc3Br)ccc21	0.94
Cn1c(=O)n(C)c2cc(C(=O)/C=C/C#C[Si](C)(C)C)ccc21	0.55
Cn1c(=O)n(C)c2cc(C(=O)/C=C/c3cccc(F)c3)ccc21	1.42
Cn1c(=O)n(C)c2cc(C(=O)/C=C/c3cn(Cc4ccccc4)c4ccccc34)ccc21	0.84
Cn1c(=O)n(C)c2cc(C(=O)/C=C/c3cc(F)cc(F)c3)ccc21	0.76
Cn1c(=O)n(C)c2cc(C(=O)/C=C/c3cnc4ccccc4c3)ccc21	1.03

biological target: T3, CYP1A1; assay: Inhibition of CYP1A1 in mouse RAW264.7 cells assessed as relative activity by measuring fold change at 5 uM incubated for 12 hrs by EROD assay relative to control; format: cell-based; settings: read-out: FC

SMILES	fold induction at 12 h, 5 µM
Cn1c(=O)n(C)c2cc(C(=O)/C=C/c3ccc(F)cc3)ccc21	0.19
Cn1c(=O)n(C)c2cc(C(=O)/C=C/c3ccc(F)cc3Cl)ccc21	0.56
CN(C)c1ccc(/C=C/C(=O)c2ccc3c(c2)n(C)c(=O)n3C)cc1	0.54
Cn1c(=O)n(C)c2cc(C(=O)/C=C/c3ccc(B(O)O)cc3F)ccc21	0.66
Cn1c(=O)n(C)c2cc(C(=O)/C=C/c3cccc(OC(F)(F)F)c3)ccc21	0.16
Cn1cccc1/C=C/C(=O)c1ccc2c(c1)n(C)c(=O)n2C	1.07
Cn1c(=O)n(C)c2cc(C(=O)/C=C/c3ncccn3)ccc21	0.72
Cn1c(=O)n(C)c2cc(C(=O)/C=C/c3ccc(O[Si](C)(C)C(C)(C)C)cc3)ccc21	0.89
C#Cc1ccc(/C=C/C(=O)c2ccc(NC(C)=O)cc2)cc1	0.57
Cn1c(=O)n(C)c2cc(C(=O)/C=C/C#Cc3ccccc3)ccc21	0.49
Cn1c(=O)n(C)c2cc(C(=O)/C=C/c3ccc(F)cc3F)ccc21	0.56
Cn1c(=O)n(C)c2cc(C(=O)/C=C/c3cc(F)c(F)cc3F)ccc21	0.79
Cn1c(=O)n(C)c2cc(C(=O)/C=C/c3ccc(C#N)cc3)ccc21	0.6
Cn1c(=O)n(C)c2cc(C(=O)/C=C/c3cccnc3Br)ccc21	0.22
Cn1c(=O)n(C)c2cc(C(=O)/C=C/C#C[Si](C)(C)C)ccc21	0.15
Cn1c(=O)n(C)c2cc(C(=O)/C=C/c3cccc(F)c3)ccc21	0.8
Cn1c(=O)n(C)c2cc(C(=O)/C=C/c3cn(Cc4ccccc4)c4ccccc34)ccc21	0.78
Cn1c(=O)n(C)c2cc(C(=O)/C=C/c3cc(F)cc(F)c3)ccc21	0.89
Cn1c(=O)n(C)c2cc(C(=O)/C=C/c3cnc4ccccc4c3)ccc21	0.29
